Measured values reported in ChEMBL document CHEMBL5532656, “Novel ligustilide derivatives target quorum sensing system LasR/LasB and relieve inflammatory response against Pseudomonas aeruginosa infection” (Eur J Med Chem, 2024).

Test: Inhibition of quorum sensing system in Pseudomonas aeruginosa PAO1-lasB-gfp at 10 uM relative to control

inhibition [%]	Structure (SMILES)
33.9	CCCCC1(O)C2=C(C=CCC2)C(=O)N1Cc1ccco1 (configuration not stated)
29.7	CCCCC1(O)C2=C(C=CCC2)C(=O)N1Cc1cccs1 (configuration not stated)
35.5	CCCCC1(O)C2=C(C=CCC2)C(=O)N1c1ncccn1 (configuration not stated)
35.3	CCCCC1(O)C2=C(C=CCC2)C(=O)N1Cc1ccc(N(C)C)cc1 (configuration not stated)
37.7	CCCCC1(O)C2=C(C=CCC2)C(=O)N1CCc1c[nH]c2ccc(O)cc12 (configuration not stated)
36.3	CCCCC1(O)C2=C(C=CCC2)C(=O)N1Cc1ccccc1OC (configuration not stated)
40.4	CCCCC1(O)C2=C(C=CCC2)C(=O)N1Cc1ccccc1F (configuration not stated)
45.1	CCCCC1(O)C2=C(C=CCC2)C(=O)N1Cc1ccccc1C(F)(F)F (configuration not stated)
29.4	CCCCC1(O)C2=C(C=CCC2)C(=O)N1Cc1cccc(OC)c1 (configuration not stated)
37.6	CCCCC1(O)C2=C(C=CCC2)C(=O)N1Cc1ccccc1Cl (configuration not stated)
41.5	CCCCC1(O)C2=C(C=CCC2)C(=O)N1Cc1ccc(C)cc1 (configuration not stated)
15.1	CCCCC1(O)C2=C(C=CCC2)C(=O)N1c1ccccc1 (configuration not stated)
43.8	CCCCC1(O)C2=C(C=CCC2)C(=O)N1Cc1ccc(-c2ccccc2)cc1 (configuration not stated)
45.2	CCCCC1(O)C2=C(C=CCC2)C(=O)N1Cc1ccc(Br)cc1 (configuration not stated)
40.5	CCCCC1(O)C2=C(C=CCC2)C(=O)N1Cc1ccc(OCC)cc1 (configuration not stated)
18.1	CCCCC1(O)C2=C(C=CCC2)C(=O)N1CCCCc1ccccc1 (configuration not stated)
47.4	CCCCC1(O)C2=C(C=CCC2)C(=O)N1Cc1ccc(Cl)cc1 (configuration not stated)

The next lines start with the molecule.

Structure (SMILES)	inhibition [%]
CCCCC1(O)C2=C(C=CCC2)C(=O)N1C1CCCCC1 (configuration not stated)	16.4
C#CCN1C(=O)C2=C(CCC=C2)C1(O)CCCC (configuration not stated)	21.5
CCCCC1(O)C2=C(C=CCC2)C(=O)N1CCC (configuration not stated)	21.1
CCCCC1(O)C2=C(C=CCC2)C(=O)N1CC (configuration not stated)	17.4
CCCCC1(O)C2=C(C=CCC2)C(=O)N1Cc1cccc(Cl)c1 (configuration not stated)	34.2
CCCCC1(O)C2=C(C=CCC2)C(=O)N1C1CC1 (configuration not stated)	20.4
CCCCC1(O)C2=C(C=CCC2)C(=O)N1Cc1ccc(F)cc1 (configuration not stated)	41.5
CCCCC1(O)C2=C(C=CCC2)C(=O)N1Cc1cccc(C(F)(F)F)c1 (configuration not stated)	39.4
CCCCN1C(=O)C2=C(CCC=C2)C1(O)CCCC (configuration not stated)	21.6
CCCCC1(O)C2=C(C=CCC2)C(=O)N1Cc1cccc(-c2ccccc2)c1 (configuration not stated)	32.9
CCCCC1(O)C2=C(C=CCC2)C(=O)N1Cc1ccc(O)cc1 (configuration not stated)	40.2
CCCCC1(O)C2=C(C=CCC2)C(=O)N1Cc1ccc(OC)cc1 (configuration not stated)	40.7
CCCCC1(O)C2=C(C=CCC2)C(=O)N1CCc1ccccc1 (configuration not stated)	11.6
CCCCC1(O)C2=C(C=CCC2)C(=O)N1Cc1ccc(C(C)C)cc1 (configuration not stated)	40.7
CCCCC1(O)C2=C(C=CCC2)C(=O)N1CCc1c[nH]c2ccc(OC)cc12 (configuration not stated)	30.6
CCCCC1(O)C2=C(C=CCC2)C(=O)N1C1CCCC1 (configuration not stated)	16.7
CCCCC1(O)C2=C(C=CCC2)C(=O)N1Cc1cccnc1 (configuration not stated)	31.9
CCCCC1(O)C2=C(C=CCC2)C(=O)N1Cc1cccc(F)c1 (configuration not stated)	41
CCCCCN1C(=O)C2=C(CCC=C2)C1(O)CCCC (configuration not stated)	21.2
CCCCC1(O)C2=C(C=CCC2)C(=O)N1Cc1ccc(C#N)cc1 (configuration not stated)	44.3
